The source of these data is PMC5905968, “Evaluation of the fusion inhibitor P3 peptide as a potential microbicide to prevent HIV transmission in women” (PLoS ONE, 2018).

The test system of the data set is HIV-1 isolate 93AOHDC250. The data set can be described thus: Single-round viral infectivity assay, luciferase, TZM-bl reporter cells, after exposure of P3 to fluids, temperature, pH or H2O2. The method, then:
The antiviral activity of P3 in the presence of SP and VFS was determined with a single-round viral infectivity assay using TZM-bl reporter cells, as previously described. Briefly, TZM-bl cells were plated (1x10^4 cells/well) in a 96-plate and incubated overnight at 37°C with 5% CO2. […] The same procedure was done with VFS and with SP+VFS. Cells were then infected with 200 TCID50 (in 100 μl) of HIV-1 isolate 93AOHDC250 and incubated for 48h before measuring the luciferase activity with the Pierce Firefly Luc One-Step Glow Assay Kit (ThermoFisher Scientific, Rockford, USA) according to the manufacturer’s instructions. At least two independent experiments, each in triplicate, were performed for each antiviral activity analysis. For these experiments, the positive control was made of cells plus virus, the negative control was made of cells plus complete growth medium, compound controls were made of cells plus P3 alone or P3 in SP, VFS or SP+VPS, and the biological fluids control were made of cells plus SP, VFS or SP+VFS.
The long-term stability of P3 was evaluated in the presence of SP [0.5% or 1% (v/v)] or VFS at 37°C for a period of 24h, 48h and 1 week before performing the assay, as described above. In all cases, P3 was considered stable in the presence of biologic fluids if its antiviral activity was unaffected by SP, VFS and SP+VFS. In addition, peptide concentration was determined after exposure to the above conditions by mass spectrometry as described below.
The stability and antiviral activity of P3 were evaluated at different conditions of temperature, pH and oxidation. […] The antiviral activity of each peptide solution was then evaluated with a single-round viral infectivity assay using TZM-bl reporter cells and HIV-1 isolate 93AOHDC250, as described above.
The effect of pH on P3 was evaluated at pH ranging from 4 to 8. Briefly, IC50 peptide solutions were prepared in GM and the pH was adjusted using HCl (1M) or NaOH (1M). Each solution was then incubated at 37°C for 2, 8 and 24 hours and their antiviral activity was determined in a single-round viral infectivity assay using a luciferase reporter gene assay in TZM-bl cells as described above.
To test for oxidation by H2O2, P3 solutions at concentrations corresponding to the IC50 and IC90 were treated with H2O2 at biologic relevant concentrations (1.2μM and 5μM). The antiviral activity of the different solutions was determined in a single-round viral infectivity assay using a luciferase reporter gene assay in TZM-bl cells, as described above.
Controls for these experiments were the following: positive controls (cells plus virus), negative controls (cells plus complete growth medium); pH compound controls (cells plus P3 in different pH growth medium); H2O2 compound controls (cells plus P3 in H2O2, 1.2μM or 5μM); cell controls were also performed under the same incubation conditions. H2O2 and pH cytotoxicity were assessed in TZM-bl cells using alamarBlue assay. In all cases, P3 was considered stable when its antiviral activity was unaffected under the different conditions tested.

For the compound `CC[C@H](C)[C@H](NC(=O)[C@H](CC(N)=O)NC(=O)[C@H](C)NC(=O)[C@H](CCC(=O)O)NC(=O)[C@H](CC(C)C)NC(=O)[C@H](Cc1ccc(O)cc1)NC(=O)[C@H](CCCNC(=N)N)NC(=O)[C@@H](NC(=O)[C@H](CCC(N)=O)NC(=O)[C@H](CCC(N)=O)NC(=O)[C@H](CCC(=O)O)NC(=O)[C@H](Cc1c[nH]c2ccccc12)NC(=O)[C@H](CCC(=O)O)NC(=O)[C@H](CCC(N)=O)NC(=O)[C@H](Cc1c[nH]c2ccccc12)NC(C)=O)C(C)C)C(=O)N[C@@H](CO)C(=O)N[C@@H](CCC(N)=O)C(=O)N[C@@H](CCCNC(=N)N)C(=O)N[C@@H](CC(C)C)C(=O)N[C@@H](CCC(=O)O)C(=O)N[C@@H](CCC(N)=O)C(=O)N[C@@H](C)C(=O)N[C@@H](CCC(N)=O)C(=O)N[C@H](C(=O)N[C@@H](CCC(N)=O)C(=O)N[C@@H](CCC(N)=O)C(=O)N[C@@H](CCC(=O)O)C(=O)N[C@@H](CCCCN)C(=O)N[C@@H](CC(N)=O)C(=O)N[C@@H](CCSC)C(=O)N[C@@H](Cc1ccc(O)cc1)C(=O)N[C@@H](CCC(=O)O)C(=O)N[C@@H](CC(C)C)C(=O)N[C@@H](CCC(N)=O)C(N)=O)[C@@H](C)CC` [P3], under “P3 366.4 nM, seminal plasma 1% (v/v), 37°C, 1 week”, the “antiviral activity in the presence of SP 1%” value is listed as “significant decrease of antiviral activity”. For the same compound, for the setting “P3 366.4 nM, SP 0.5% or 1% (v/v), VFS, SP+VFS, 37°C, up to 1 week of contact, at least two experiments in triplicate”, the “antiviral activity in the presence of human fluids” value was “unaffected”. Also, where the note is “P3 366.4 nM, SP 0.5% or 1%, VFS, 37°C”, the “time of full antiviral activity in the presence of human biological fluids” value was “at least 48 h”. This compound also displayed a mean viral inhibition (P3 at IC90 (366.4 nM) in growth medium, incubated 1 week at 25°C before assay) of 99%; a mean viral inhibition (P3 at IC90 (366.4 nM) in growth medium, incubated 1 week at 37°C before assay) of 99%; a mean viral inhibition (P3 at IC90 (366.4 nM) in growth medium, incubated 1 week at 65°C before assay) of 100%; a mean viral inhibition (control: P3 at IC90 (366.4 nM), antiviral activity determined after 48h at 37°C) of 99%.
